Test results: patent US20240391862A1, “(1,4,5-TRISUBSTITUTED-1H-PYRAZOL-3-YL)OXY-2-ALKOXY ALKYL ACIDS AND THEIR DERIVATIVES, THEIR SALTS AND THEIR USE AS HERBICIDAL AGENTS” (Bayer AKtiengesellschaft, priority 2021, published 2024)

Legend:
POLCO = assay: Pre-emergence herbicidal effect, greenhouse pot test; format: in vivo, Fallopia convolvulus; conditions: scored visually after about 3 weeks vs untreated controls; for pest or weed control at 320 g/ha: Fallopia convolvulus, 504 h, read-out: Pre-emergence effect at 320 g/ha against POLCO in %
Excerpt: (§1) Seeds of monocotyledonous and dicotyledonous weed plants and crop plants are placed in plastic or organic planting pots and covered with soil. The compounds of the invention, formulated in the form of wettable powders (WP) or as emulsion concentrates (EC), are then applied to the surface of the covering soil as aqueous suspension or emulsion with addition of 0.5% additive at a water application rate equivalent to 600 l/ha. After the treatment, the pots are placed in a greenhouse and kept under good growth conditions for the trial plants. After about 3 weeks, the effect of the preparations is scored visually in comparison with untreated controls as percentages. For example, 100% activity=the plants have died, 0% activity=like control plants.
(§2) Tables 1a to 19c below show the effects/crop compatibilities of selected compounds of the general formula (I) on various harmful plants at an application rate corresponding to 20 to 320 g/ha, which were obtained by the trial procedure specified above.
(§3) • ALOMY: Alopecurus myosuroides SETVI: Setaria viridis • AVEFA: Avena fatua POLCO: Fallopia convolvulus • AMARE: Amaranthus retroflexus ECHCG: Echinochloa crus-galli • LOLRJ: Lolium rigidum STEME: Stellaria media • VERPE: Veronica persica MATIN: Tripleurospermum inodorum • DIGSA: Digitaria sanguinalis ABUTH: Abutylon threophrasti • TRZAS: Triticum aestivum VIOTR: Viola tricolor • BRSNW: Brassica napus ZEAMX: Zea mays • PHBPU: Ipomoea purpurea GLXMA: Glycine max • ORYSA: Oryza sativa HORMU: Hordeum murinum

GLXMA = assay: Pre-emergence herbicidal effect and crop plant compatibility, greenhouse pot test; format: in vivo, Glycine max; conditions: 80 g/ha, scored visually after about 3 weeks vs untreated controls
Excerpt: as §1, §2, §3

ECHCG [1] = assay: Pre-emergence herbicidal effect, greenhouse pot test; format: in vivo, Echinochloa crus-galli; conditions: scored visually after about 3 weeks vs untreated controls; for pest or weed control at 320 g/ha: Echinochloa crus-galli, 504 h, read-out: Pre-emergence effect at 320 g/ha against ECHCG in %
Excerpt: as §1, §2, §3

PHBPU [2] = assay: Post-emergence herbicidal effect, greenhouse pot test; format: in vivo, Ipomoea purpurea; conditions: Ipomoea purpurea, 504 h, read-out: Post-emergence effect against PHBPU in %
Method in brief: (§4)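 Weeds sown in sandy loam, greenhouse-grown 2–3 weeks, then sprayed at one-leaf stage with WP or EC formulations in water plus 0.5% additive at 600 l/ha. Rates 20 to 320 g/ha. Visual rating after about 3 weeks versus untreated controls (100% = plants dead, 0% = like control).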

ZEAMX = assay: Pre-emergence herbicidal effect and crop plant compatibility, greenhouse pot test; format: in vivo, Zea mays; conditions: 80 g/ha, scored visually after about 3 weeks vs untreated controls
Method in brief: (§5)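 Seeds sown in pots and covered with soil; WP- or EC-formulated compounds applied to the soil surface as aqueous suspension/emulsion with 0.5% additive at 600 l/ha water, 20 to 320 g/ha. Greenhouse growth; visual % effect vs untreated controls after about 3 weeks (100% = plants died, 0% = like control).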

ALOMY [3] = assay: Post-emergence herbicidal effect, greenhouse pot test; format: in vivo, Alopecurus myosuroides; conditions: Alopecurus myosuroides, 504 h, visual rating about 3 weeks after treatment, read-out: Post-emergence effect against ALOMY
Method in brief: as §4

MATIN [4] = assay: Pre-emergence herbicidal effect, greenhouse pot test; format: in vivo, Tripleurospermum inodorum; conditions: scored visually after about 3 weeks vs untreated controls; for pest or weed control at 320 g/ha: Tripleurospermum inodorum, 504 h, read-out: Pre-emergence effect at 320 g/ha against MATIN in %
Excerpt: as §1, §2, §3

SETVI [5] = assay: as above; format: in vivo, Setaria viridis; conditions: scored visually after about 3 weeks vs untreated controls; for pest or weed control at 320 g/ha: Setaria viridis, 504 h, read-out: Pre-emergence effect at 320 g/ha against SETVI in %
Method in brief: as §5

LOLRI [6] = assay: as above; format: in vivo, Lolium rigidum; conditions: scored visually after about 3 weeks vs untreated controls
Excerpt: as §1, §2, §3

VIOTR = assay: Post-emergence herbicidal effect, greenhouse pot test; format: in vivo, Viola tricolor; conditions: Viola tricolor, 504 h, read-out: Post-emergence effect against VIOTR in %
Method in brief: as §4

VERPE = assay: as above; format: in vivo, Veronica persica; conditions: Veronica persica, 504 h, read-out: Post-emergence effect against VERPE in %
Method in brief: as §4

AMARE [7] = assay: as above; format: in vivo, Amaranthus retroflexus; conditions: Amaranthus retroflexus, 504 h, visual rating about 3 weeks after treatment, read-out: Post-emergence effect against AMARE
Method in brief: as §4

ALOMY [8] = assay: Pre-emergence herbicidal effect, greenhouse pot test; format: in vivo, Alopecurus myosuroides; conditions: scored visually after about 3 weeks vs untreated controls
Excerpt: as §1, §2, §3

AMARE [9] = assay: as above; format: in vivo, Amaranthus retroflexus; conditions: scored visually after about 3 weeks vs untreated controls; for pest or weed control at 320 g/ha: Amaranthus retroflexus, 504 h, read-out: Pre-emergence effect at 320 g/ha against AMARE in %
Method in brief: as §5

SETVI [10] = assay: Post-emergence herbicidal effect, greenhouse pot test; format: in vivo, Setaria viridis; conditions: Setaria viridis, 504 h, read-out: Post-emergence effect against SETVI in %
Method in brief: as §4

LOLRI [11] = assay: as above; format: in vivo, Lolium rigidum; conditions: Lolium rigidum, 504 h, read-out: Post-emergence effect against LOLRI in %
Method in brief: as §4

AVEFA = assay: as above; format: in vivo, Avena fatua; conditions: Avena fatua, 504 h, visual rating about 3 weeks after treatment, read-out: Post-emergence effect against AVEFA
Method in brief: as §4

MATIN [12] = assay: as above; format: in vivo, Tripleurospermum inodorum; conditions: Tripleurospermum inodorum, 504 h, read-out: Post-emergence effect against MATIN in %
Method in brief: as §4

ECHCG [13] = assay: as above; format: in vivo, Echinochloa crus-galli; conditions: Echinochloa crus-galli, 504 h, read-out: Post-emergence effect against ECHCG in %
Method in brief: as §4

PHBPU [14] = assay: Pre-emergence herbicidal effect, greenhouse pot test; format: in vivo, Ipomoea purpurea; conditions: scored visually after about 3 weeks vs untreated controls
Excerpt: as §1, §2, §3

SMILES: CCOC(=O)C(OCC)Oc1nn(-c2ccccc2F)c(-c2ccc(F)nc2)c1Br (racemic) [Example I-01, Ethyl (2RS)-{[4-bromo-1-(2-fluorophenyl)-5-(6-fluoropyridin-3-yl)-1H-pyrazol-3-yl]oxy}(ethoxy)acetate]
- Pre-emergence effect at 80 g/ha against POLCO in % (POLCO): 80%
- pest or weed control at 320 g/ha (POLCO): 90%
- Pre-emergence effect at 80 g/ha against GLXMA in % (GLXMA): 0%
- pest or weed control at 320 g/ha (ECHCG [1]): 100%
- pest or weed control at 80 g/ha (PHBPU [2]): 90%
- pest or weed control at 320 g/ha (PHBPU [2]): 90%
- Pre-emergence effect at 80 g/ha against ZEAMX in % (ZEAMX): 0%
- pest or weed control at 80 g/ha (ALOMY [3]): 90%
- pest or weed control at 320 g/ha (ALOMY [3]): 100%
- Pre-emergence effect at 80 g/ha against MATIN in % (MATIN [4]; 80 g/ha): 90%
- pest or weed control at 320 g/ha (MATIN [4]): 90%
- pest or weed control at 320 g/ha (SETVI [5]): 100%
- Pre-emergence effect at 80 g/ha against LOLRI in % (LOLRI [6]; 80 g/ha): 90%
- Pre-emergence effect at 320 g/ha against LOLRI in % (LOLRI [6]): 100%
- pest or weed control at 80 g/ha (VIOTR): 80%
- pest or weed control at 320 g/ha (VIOTR): 90%
- pest or weed control at 80 g/ha (VERPE): 80%
- pest or weed control at 320 g/ha (VERPE): 90%
- pest or weed control at 80 g/ha (AMARE [7]; 80 g/ha): 80%
- pest or weed control at 320 g/ha (AMARE [7]): 90%
- Pre-emergence effect at 320 g/ha against ALOMY in % (ALOMY [8]): 90%
- Pre-emergence effect at 80 g/ha against AMARE in % (AMARE [9]): 80%
- pest or weed control at 320 g/ha (AMARE [9]): 100%
- pest or weed control at 80 g/ha (SETVI [10]): 90%
- pest or weed control at 320 g/ha (SETVI [10]): 90%
- pest or weed control at 320 g/ha (LOLRI [11]): 90%
- pest or weed control at 320 g/ha (AVEFA): 90%
- pest or weed control at 80 g/ha (MATIN [12]): 80%
- pest or weed control at 320 g/ha (MATIN [12]): 90%
- pest or weed control at 80 g/ha (ECHCG [13]): 90%
- pest or weed control at 320 g/ha (ECHCG [13]): 90%

SMILES: COC(=O)C(OC)Oc1nn(-c2ccccc2F)c(-c2ccc(F)nc2)c1Br (racemic) [Example I-04, Methyl (2RS)-{[4-bromo-1-(2-fluorophenyl)-5-(6-fluoropyridin-3-yl)-1H-pyrazol-3-yl]oxy}(methoxy)acetate]
- Pre-emergence effect at 80 g/ha against POLCO in % (POLCO): 80%
- pest or weed control at 320 g/ha (POLCO): 90%
- Pre-emergence effect at 80 g/ha against ECHCG in % (ECHCG [1]; 80 g/ha): 80%
- pest or weed control at 320 g/ha (ECHCG [1]): 100%
- pest or weed control at 80 g/ha (PHBPU [2]): 80%
- pest or weed control at 320 g/ha (PHBPU [2]): 80%
- Pre-emergence effect at 80 g/ha against ZEAMX in % (ZEAMX): 0%
- pest or weed control at 80 g/ha (ALOMY [3]): 90%
- pest or weed control at 320 g/ha (ALOMY [3]): 90%
- pest or weed control at 320 g/ha (MATIN [4]): 90%
- Pre-emergence effect at 80 g/ha against SETVI in % (SETVI [5]; 80 g/ha): 80%
- pest or weed control at 320 g/ha (SETVI [5]): 100%
- Pre-emergence effect at 320 g/ha against LOLRI in % (LOLRI [6]): 100%
- pest or weed control at 80 g/ha (VIOTR): 80%
- pest or weed control at 320 g/ha (VIOTR): 80%
- pest or weed control at 80 g/ha (VERPE): 90%
- pest or weed control at 320 g/ha (VERPE): 90%
- pest or weed control at 320 g/ha (AMARE [7]): 90%
- Pre-emergence effect at 80 g/ha against ALOMY in % (ALOMY [8]; 80 g/ha): 80%
- Pre-emergence effect at 320 g/ha against ALOMY in % (ALOMY [8]): 90%
- Pre-emergence effect at 80 g/ha against PHBPU in % (PHBPU [14]; 80 g/ha): 80%
- Pre-emergence effect at 320 g/ha against PHBPU in % (PHBPU [14]): 90%
- Pre-emergence effect at 80 g/ha against AMARE in % (AMARE [9]): 80%
- pest or weed control at 320 g/ha (AMARE [9]): 100%
- pest or weed control at 80 g/ha (SETVI [10]): 80%
- pest or weed control at 320 g/ha (SETVI [10]): 80%
- pest or weed control at 80 g/ha (LOLRI [11]): 80%
- pest or weed control at 320 g/ha (LOLRI [11]): 80%
- pest or weed control at 80 g/ha (AVEFA): 80%
- pest or weed control at 320 g/ha (AVEFA): 90%
- pest or weed control at 80 g/ha (MATIN [12]): 80%
- pest or weed control at 320 g/ha (MATIN [12]): 80%
- pest or weed control at 80 g/ha (ECHCG [13]): 80%
- pest or weed control at 320 g/ha (ECHCG [13]): 80%

SMILES: COC(=O)C(OC)Oc1nn(-c2ncccc2F)c(-c2ccc(F)nc2)c1Br (centres unmarked) [Example I-05]
- pest or weed control at 320 g/ha (POLCO): 90%
- Pre-emergence effect at 80 g/ha against GLXMA in % (GLXMA): 10%
- pest or weed control at 320 g/ha (ECHCG [1]): 90%
- pest or weed control at 320 g/ha (PHBPU [2]): 90%
- Pre-emergence effect at 80 g/ha against ZEAMX in % (ZEAMX): 20%
- pest or weed control at 80 g/ha (ALOMY [3]): 90%
- pest or weed control at 320 g/ha (ALOMY [3]): 90%
- pest or weed control at 320 g/ha (MATIN [4]): 90%
- pest or weed control at 320 g/ha (SETVI [5]): 100%
- Pre-emergence effect at 320 g/ha against LOLRI in % (LOLRI [6]): 100%
- pest or weed control at 320 g/ha (VIOTR): 80%
- pest or weed control at 320 g/ha (VERPE): 80%
- pest or weed control at 320 g/ha (AMARE [7]): 80%
- Pre-emergence effect at 320 g/ha against ALOMY in % (ALOMY [8]): 90%
- Pre-emergence effect at 320 g/ha against PHBPU in % (PHBPU [14]): 80%
- pest or weed control at 320 g/ha (AMARE [9]): 90%
- pest or weed control at 80 g/ha (SETVI [10]): 80%
- pest or weed control at 320 g/ha (SETVI [10]): 80%
- pest or weed control at 80 g/ha (LOLRI [11]): 80%
- pest or weed control at 320 g/ha (LOLRI [11]): 90%
- pest or weed control at 80 g/ha (AVEFA): 80%
- pest or weed control at 320 g/ha (AVEFA): 80%
- pest or weed control at 320 g/ha (MATIN [12]): 80%
- pest or weed control at 320 g/ha (ECHCG [13]): 80%
